System: CMV
Test: Viral qPCR assay, CMV
Format: cell-based
Details: Human betaherpesvirus 5, 72 h, infected cells, viral genome copies by qPCR normalized to PPIA, read-out: CMV Cell EC50
Description: (§1) MRC5 cells, Vero cells, and MeWo cells were obtained from ATCC, and were maintained at 37° C./5% CO2/90% relative humidity in Minimal Essential Medium with 10% fetal bovine serum, […] L-glutamine, 100 units/ml penicillin and 100 ug/ml streptomycin. Assay plates were prepared by dispensing compounds dissolved in DMSO into wells of 384 well collagen-coated plates using an ECHO acoustic dispenser. Each test compound was tested in a 10-point, serial 3-fold dilution. Controls included uninfected cells and infected cells treated only with DMSO. Assays were initiated by mixing selected cells, in suspension, with virus, and dispensing 50 μl/well infected cells to pre-plated compounds. Plates were incubated at 37° C./5% CO2/90% relative humidity for ˜72 hrs to permit genomic replication, and infected cells were lysed by the addition of an equal volume of lysis buffer (10 mM Tris-HCl, pH8, 50 mM KCl, 2 mM MgCl2, 0.45% NP-40, 0.45% Tween-20, and 100 µg/ml proteinase K). An aliquot of the lysate was then transferred to a 384-well PCR plate and incubated at 56° C. for 1 hour, and then at 95° C. for 10 minutes. Levels of the selected viral gene and of the cellular control, PPIA, were measured in separate 10 μl qPCR assays using TaqMan® Gene Expression Master Mix (Applied Biosystems), and an 7900HT Fast Real-Time PCR System with 384-Well Block Module. 7-point, serial 10-fold dilutions of a plasmid standard were run on each plate to generate a standard curve, and genome copies numbers were calculated by plotting experimental Ct onto linear regression of the standard curve. Viral genome copy numbers were normalized by cellular control copy number, and compound effects were normalized to the window defined by the controls. Calculated % effects were fit using a 4-parameter algorithm, and EC50 was reported.

Question: `CC1CN(C)CCC1(F)c1ccc2ncn(Cc3ccc(Cl)cc3)c(=O)c2c1` (single isomer, unassigned) [Example 47] was tested. Which EC50 did it give?
Answer: Its EC50 is 550 nM.

Question: For `O=C1OC[C@@H]2C[C@@H](Oc3cc(CO)c4ncn(Cc5ccc(Cl)cc5)c(=O)c4c3)CCN12` [Example 46], which EC50 is on record?
Answer: The EC50 was 174 nM.

Question: With `Cc1nc2cc(-c3cn[nH]c3)c(O[C@H]3CCN4C(=O)OC[C@@H]4C3)cc2c(=O)n1Cc1ccc(Cl)cc1` [Example 53] as the compound, how does the EC50 read?
Answer: Its EC50 is 86 nM.

Question: `COc1ncc(-c2cc3nc(C)n(Cc4ccc(C#N)cc4)c(=O)c3cc2O[C@H]2CCN3C(=O)OC[C@@H]3C2)cn1` [Example 75] was tested. Which EC50 did it give?
Answer: The EC50 was 164 nM.

Question: Which EC50 does the source give for `COc1nc2ccn(Cc3ccc(Cl)cc3)c(=O)c2cc1O[C@H]1CCN2C(=O)OC[C@@H]2C1` [Example 39] here?
Answer: The EC50 was 520 nM.

Question: With `Cc1nc2cc(-c3cnn(C4CCN(C)CC4)c3)c(O[C@H]3CCN4C(=O)OC[C@@H]4C3)cc2c(=O)n1Cc1ccc(C#N)cc1` [Example 71] as the compound, how does the EC50 read?
Answer: The EC50 was 197 nM.

Question: With `O=C1OC[C@@H]2C[C@@H](Oc3ccc4c(CO)cn(Cc5ccc(Cl)cc5)c(=O)c4c3)CCN12` [Example 29] as the compound, how does the EC50 read?
Answer: Its EC50 is 240 nM.

Question: How did the EC50 turn out when `Cc1nc2cc(C#N)c(N3CCN(C)C[C@H]3C)cc2c(=O)n1Cc1ccc(C#N)cc1F` [Example 63] was run?
Answer: The EC50 was 498 nM.

System: HSV2
Test: Viral qPCR assay, HSV2
Format: cell-based
Details: Human alphaherpesvirus 2, 72 h, infected cells, viral genome copies by qPCR normalized to PPIA, read-out: HSV2 Cell EC50
Description: as §1

Question: With `CC1CN(C)CCC1(F)c1ccc2ncn(Cc3ccc(Cl)cc3)c(=O)c2c1` (single isomer, unassigned) [Example 47] as the compound, how does the EC50 read?
Answer: Its EC50 is 1370 nM.

Question: Which EC50 does the source give for `O=C1OC[C@@H]2C[C@@H](Oc3cc(CO)c4ncn(Cc5ccc(Cl)cc5)c(=O)c4c3)CCN12` [Example 46] here?
Answer: Its EC50 is 334 nM.

Question: With `Cc1nc2cc(-c3cn[nH]c3)c(O[C@H]3CCN4C(=O)OC[C@@H]4C3)cc2c(=O)n1Cc1ccc(Cl)cc1` [Example 53] as the compound, how does the EC50 read?
Answer: The EC50 was 35 nM.

Question: For `COc1ncc(-c2cc3nc(C)n(Cc4ccc(C#N)cc4)c(=O)c3cc2O[C@H]2CCN3C(=O)OC[C@@H]3C2)cn1` [Example 75], which EC50 is on record?
Answer: The EC50 was 413 nM.

Question: Which EC50 does the source give for `COc1nc2ccn(Cc3ccc(Cl)cc3)c(=O)c2cc1O[C@H]1CCN2C(=O)OC[C@@H]2C1` [Example 39] here?
Answer: Its EC50 is 952 nM.

Question: `Cc1nc2cc(-c3cnn(C4CCN(C)CC4)c3)c(O[C@H]3CCN4C(=O)OC[C@@H]4C3)cc2c(=O)n1Cc1ccc(C#N)cc1` [Example 71] was tested. Which EC50 did it give?
Answer: The EC50 was 171 nM.

Question: With `Cc1nc2cc(C#N)c(N3CCN(C)C[C@H]3C)cc2c(=O)n1Cc1ccc(C#N)cc1F` [Example 63] as the compound, how does the EC50 read?
Answer: Its EC50 is 3710 nM.

Target: varicella zoster virus DNA polymerase (Varicella-zoster virus (strain Dumas) (HHV-3) (Human herpesvirus 3), UniProt P09252)
Test: VZV polymerase assay (AlphaLISA)
Format: biochemical
Details: VZV polymerase 0.4 nM, 30 min pre-incubation, 60 minute at 37° C.
Description: (§2) Human cytomegalovirus and varicella zoster virus DNA polymerases were expressed via baculovirus vector in SF21 cells and purified. Heterodimeric nucleic acid substrate used in the herpesvirus polymerase reactions were generated by annealing a 59-mer template to a 17-mer digoxigenin-labeled primer. Polymerase (HCMV final concentration of 0.2 nM; VZV final concentration of 0.4 nM) was combined with an inhibitor compound or DMSO in assay buffer (10 mM HEPES, pH 7.5, 25 mM KCl, 25 mM NaCl, 5 mM MgCl2, 5% glycerol, 0.67 mg/ml bovine serum albumin, and 1 mM tris(2-carboxyethyl)phosphine)), and this mixture was pre-incubated for 30 minutes at room temperature in 384-well microtiter plates. The polymerization reaction was initiated by the addition of template/primer substrate (final concentration: 1.6 nM), and dNTPs (final concentration: 24 nM dCTP, 24 nMdGTP, 16 nM dATP, 16 nM dTTP, and 0.8 nM biotin-dUTP). After a 60 minute incubation period at 37° C., the reactions were terminated using quench buffer (25 mM HEPES pH 7.5, 100 mM NaCl, 0.25% Tween-20, 12 mM EDTA, and 1 mg/ml bovine serum albumin). Incorporation of biotinylated UTP was detected with 2.5-5 μg/mL anti-DIG AlphaLISA acceptor beads and 5-10 μg/mL streptavidin AlphaLISA donor beads (PerkinElmer). Compound effects were normalized to the window defined by the controls (DMSO only and pre-quenched wells), and were fit using a 4-parameter algorithm to report an IC50.

Question: Which IC50 does the source give for `CC1CN(C)CCC1(F)c1ccc2ncn(Cc3ccc(Cl)cc3)c(=O)c2c1` (single isomer, unassigned) [Example 47] here?
Answer: The IC50 was 102 nM.

Question: With `O=C1OC[C@@H]2C[C@@H](Oc3cc(CO)c4ncn(Cc5ccc(Cl)cc5)c(=O)c4c3)CCN12` [Example 46] as the compound, how does the IC50 read?
Answer: Its IC50 is 20 nM.

Question: How did the IC50 turn out when `Cc1nc2cc(-c3cn[nH]c3)c(O[C@H]3CCN4C(=O)OC[C@@H]4C3)cc2c(=O)n1Cc1ccc(Cl)cc1` [Example 53] was run?
Answer: The IC50 was 0.56 nM.

Question: For `COc1ncc(-c2cc3nc(C)n(Cc4ccc(C#N)cc4)c(=O)c3cc2O[C@H]2CCN3C(=O)OC[C@@H]3C2)cn1` [Example 75], which IC50 is on record?
Answer: Its IC50 is 23 nM.

Question: For `COc1nc2ccn(Cc3ccc(Cl)cc3)c(=O)c2cc1O[C@H]1CCN2C(=O)OC[C@@H]2C1` [Example 39], which IC50 is on record?
Answer: Its IC50 is 41 nM.

Question: How did the IC50 turn out when `Cc1nc2cc(-c3cnn(C4CCN(C)CC4)c3)c(O[C@H]3CCN4C(=O)OC[C@@H]4C3)cc2c(=O)n1Cc1ccc(C#N)cc1` [Example 71] was run?
Answer: The IC50 was 13 nM.

Question: `O=C1OC[C@@H]2C[C@@H](Oc3ccc4c(CO)cn(Cc5ccc(Cl)cc5)c(=O)c4c3)CCN12` [Example 29] was tested. Which IC50 did it give?
Answer: The IC50 was 13 nM.

Target: Human cytomegalovirus DNA polymerase (Human cytomegalovirus (strain AD169) (HHV-5) (Human herpesvirus 5), UniProt P08546)
Test: CMV polymerase assay (AlphaLISA)
Format: biochemical
Details: HCMV polymerase 0.2 nM, 30 min pre-incubation, 60 minute at 37° C.
Description: as §2

Question: Which IC50 does the source give for `CC1CN(C)CCC1(F)c1ccc2ncn(Cc3ccc(Cl)cc3)c(=O)c2c1` (single isomer, unassigned) [Example 47] here?
Answer: The IC50 was 84 nM.

Question: With `O=C1OC[C@@H]2C[C@@H](Oc3cc(CO)c4ncn(Cc5ccc(Cl)cc5)c(=O)c4c3)CCN12` [Example 46] as the compound, how does the IC50 read?
Answer: The IC50 was 24 nM.

Question: How did the IC50 turn out when `Cc1nc2cc(-c3cn[nH]c3)c(O[C@H]3CCN4C(=O)OC[C@@H]4C3)cc2c(=O)n1Cc1ccc(Cl)cc1` [Example 53] was run?
Answer: Its IC50 is 0.76 nM.

Question: With `COc1ncc(-c2cc3nc(C)n(Cc4ccc(C#N)cc4)c(=O)c3cc2O[C@H]2CCN3C(=O)OC[C@@H]3C2)cn1` [Example 75] as the compound, how does the IC50 read?
Answer: The IC50 was 29 nM.

Question: Which IC50 does the source give for `COc1nc2ccn(Cc3ccc(Cl)cc3)c(=O)c2cc1O[C@H]1CCN2C(=O)OC[C@@H]2C1` [Example 39] here?
Answer: Its IC50 is 28 nM.

Question: For `Cc1nc2cc(-c3cnn(C4CCN(C)CC4)c3)c(O[C@H]3CCN4C(=O)OC[C@@H]4C3)cc2c(=O)n1Cc1ccc(C#N)cc1` [Example 71], which IC50 is on record?
Answer: The IC50 was 3.7 nM.

Question: Which IC50 does the source give for `O=C1OC[C@@H]2C[C@@H](Oc3ccc4c(CO)cn(Cc5ccc(Cl)cc5)c(=O)c4c3)CCN12` [Example 29] here?
Answer: Its IC50 is 21 nM.

Question: Which IC50 does the source give for `Cc1nc2cc(C#N)c(N3CCN(C)C[C@H]3C)cc2c(=O)n1Cc1ccc(C#N)cc1F` [Example 63] here?
Answer: The IC50 was 235 nM.

System: HSV1
Test: Viral qPCR assay, HSV1
Format: cell-based
Details: Human alphaherpesvirus 1, 72 h, infected cells, viral genome copies by qPCR normalized to PPIA, read-out: HSV1 Cell EC50
Description: as §1

Question: With `CC1CN(C)CCC1(F)c1ccc2ncn(Cc3ccc(Cl)cc3)c(=O)c2c1` (single isomer, unassigned) [Example 47] as the compound, how does the EC50 read?
Answer: The EC50 was 1580 nM.

Question: For `O=C1OC[C@@H]2C[C@@H](Oc3cc(CO)c4ncn(Cc5ccc(Cl)cc5)c(=O)c4c3)CCN12` [Example 46], which EC50 is on record?
Answer: The EC50 was 423 nM.

Question: How did the EC50 turn out when `Cc1nc2cc(-c3cn[nH]c3)c(O[C@H]3CCN4C(=O)OC[C@@H]4C3)cc2c(=O)n1Cc1ccc(Cl)cc1` [Example 53] was run?
Answer: Its EC50 is 89 nM.

Question: `COc1ncc(-c2cc3nc(C)n(Cc4ccc(C#N)cc4)c(=O)c3cc2O[C@H]2CCN3C(=O)OC[C@@H]3C2)cn1` [Example 75] was tested. Which EC50 did it give?
Answer: Its EC50 is 381 nM.

Question: For `COc1nc2ccn(Cc3ccc(Cl)cc3)c(=O)c2cc1O[C@H]1CCN2C(=O)OC[C@@H]2C1` [Example 39], which EC50 is on record?
Answer: The EC50 was 1340 nM.

Question: How did the EC50 turn out when `Cc1nc2cc(-c3cnn(C4CCN(C)CC4)c3)c(O[C@H]3CCN4C(=O)OC[C@@H]4C3)cc2c(=O)n1Cc1ccc(C#N)cc1` [Example 71] was run?
Answer: Its EC50 is 234 nM.

Question: How did the EC50 turn out when `O=C1OC[C@@H]2C[C@@H](Oc3ccc4c(CO)cn(Cc5ccc(Cl)cc5)c(=O)c4c3)CCN12` [Example 29] was run?
Answer: Its EC50 is 256 nM.

Question: `Cc1nc2cc(C#N)c(N3CCN(C)C[C@H]3C)cc2c(=O)n1Cc1ccc(C#N)cc1F` [Example 63] was tested. Which EC50 did it give?
Answer: The EC50 was 3150 nM.

Source: US12497405B2, “Bicyclic heterocycle compounds methods of use thereof for the treatment of herpes viruses” (Merck Sharp & Dohme LLC, priority 2019, dated 2025)
